Data on 1 compound can be found in PMC8667918, “Synthesis and biological evaluation of halogenated phenoxychalcones and their corresponding pyrazolines as cytotoxic agents in human breast cancer” (Journal of Enzyme Inhibition and Medicinal Chemistry, 2021).

Where “and” joins values, the source holds several entries; their conditions need not be identical. Equal values may be shown once.

One data set can be described thus: in vitro. The following applies: human. The protocol: (§1) Human breast cancer cell line MCF-7 and normal breast cell line MCF-10a were obtained from American type culture collection, MCF-7 cells were cultured using Dulbecco’s Modified Eagle Medium DMEM (Invitrogen/Life Technologies) supplemented with 10% FBS (Hyclone), 10 µg/ml of insulin (Sigma), and 1% penicillin-streptomycin. MCF-10a cell line was cultured using DMEM medium supplemented with 10% FBS, 1% sodium pyruvate, 1% MEM NEAA, 20 ng/ml human epidermal growth factor (HEGF), 10 μg/ml insulin and 0.05 mM hydrocortisone. The cells were incubated at 37 °C in a humidified atmosphere of 5% CO2.
(§2) The anticancer effect of phenoxychalcones and N-acetylpyrazolines on the viability of both tumour and normal cells was evaluated using МТТ assay as a rapid colorimetric assay. It is based on the ability of mitochondrial dehydrogenases of viable cells to reduce yellow tetrazolium salt MTT to blue formazan in quantities proportional to the number of living cells. The cells were incubated with the medium alone or with the tested compounds at concentrations of 100 µM, 25 µM, 6.25 µM, 1.56 µM and 0.39 µM for 48 h. […] Then, 20 μL MTT solution was added to each well and mixed. After 4 h, the supernatants were removed and 100 μL DMSO was added to each well to dissolve the precipitate. The viability of cells was estimated by measuring the absorbance at 570 nm using a Bioline ELIZA plate reader. The cell viability percentage was calculated based on the absorbance ratio between cell culture treated with the compounds and the untreated control multiplied by 100. Selectivity index (SI) was calculated as the ratio of cytotoxicity (IC50) on normal cells (MCF-10a) to cancer cells (MCF-7).

In data set [1] the test system is MCF-7 cells. Kind of data set: Cell cycle analysis by propidium iodide flow cytometry. Type of data set: cell-based, human. On the procedure: The cell cycle analysis was carried out by flow cytometry using ab139418_propidium iodide flow cytometry kit/BD (Abcam, Cambridge, UK) according to the manufacturer instructions. […] After treatment, the cells were washed twice with ice-cold phosphate buffer saline (PBS) and collected by centrifugation. The cells were then fixed using ice-cold 66% (v/v) ethanol, washed with PBS, and re-suspended with 0.1 mg/mL RNase to digest cellular RNA and thus minimise stained RNA in the background. The cells were then stained with […] propidium iodide (PI), a fluorescent molecule with the ability to bind to nucleic acid. PI binds to the DNA in cells in proportion to its amount. As the DNA content is different among cells in different phases of cell cycle, the stage of cell growth can be determined based on fluorescence intensity. Cell fluorescence was evaluated using FacsCalibur (BD Biosciences, USA) and analysed using Cell- Quest software (Becton Dickinson)[41]. Cell cycle analysis of MCF-7 cells without any treatment was used as control.
Background: Flow cytometry measures light scatter and fluorescence of single cells or particles in a stream.

In data set [2] the test system is p38 MAPK (phosphorylated and total) in MCF-7 cells. The data set can be described thus: p38 MAPK (phosphorylated and total) ELISA in treated cells. Type of data set: cell-based, human. Conditions: MCF-7, 1.52 µM, vs untreated cells. The protocol: Measurements were performed using ELISA kits (R&D systems, Minneapolis, MN, USA ELISA (Cat. # KHO0071) and p38 MAPK (Total) ELISA, according to the manufacturer’s instructions.
(In general: ELISA stands for enzyme-linked immunosorbent assay.)

Data set [3] has as its system MCF-7 cells. The data set can be described thus: Annexin V-FITC/PI apoptosis assay by flow cytometry. Type of data set: cell-based, human. Conditions: 24 h. On the procedure: Apoptosis assessment was carried out by flow cytometry using Annexin V-FITC and propidium iodide double-staining apoptosis detection kit (Biovision, USA) according to the manufacturer instructions. Annexin V is a protein with high affinity for phosphatidylserine (PS). The latter is a cell membrane component that translocate from the inner face of the plasma membrane to the cell surface soon after initiating apoptosis. […] The cells were then collected by centrifugation and re-suspended in 500 μL of binding buffer. Annexin V-FITC and PI double staining was performed by adding 5 μL of Annexin V-FITC and 5 μL of PI. The cells were then incubated in dark, at room temperature for 5 min. After incubation, cell fluorescence was evaluated using FacsCalibur (BD Biosciences, USA). Dot-plot graphs were used to illustrate the results.

The test system of data set [4] is MCF-7 breast cancer cell line. The data set can be described thus: MTT assay, cytotoxicity against breast cancer cell line MCF-7. The protocol: as §1, §2
In general terms: Formazan colour is commonly taken as a measure of viable cells.

Data set [5] concerns MCF-7 cells. The data set can be described thus: Intracellular reactive oxygen species (ROS) analysis with H2DCFDA. Type of data set: cell-based, human. Conditions: MCF-7, 1.52 µM. On the procedure: Intracellular ROS was detected by cell-permeable fluorogenic probe H2DCFDA. Cell culture subdivided into three groups. The groups are the negative control (untreated MCF-7 cells), the positive control group (MCF-7 cells treated with H2O2), and test group (MCF-7 cells treated with compound 2c). After removing the culture supernatants, the cells were then incubated in fresh medium with 10 µM H2DCFDA at the dark at 37 °C for 1 h. The cells were washed with PBS buffer, then, harvested and the pellets were suspended in PBS. Samples were analysed ROBONIK P2000 ELISA reader wavelength 450 nm.

Setting [6] is: MCF-7, 1.52 µM, in comparison to the control (DMSO).
Setting [7] is: MCF-7, 1.52 µM, relative to control (DMSO).

On to `Cc1ccc(C(=O)C=Cc2ccc(Oc3ccc(Br)cc3)cc2)cc1` [Compound 2c, 3–(4-(4-Bromophenoxy)phenyl)-1-(p-tolyl)prop-2-en-1-one], for which the 50% inhibitory concentration (IC50) (usually the concentration that inhibits the measured activity by half) in the data set “in vitro” came out at 23.2 ± 0.88 µM. Moreover, the “phase of cell cycle arrest” value in the data set on MCF-7 cells [1] (MCF-7, 1.52 µM) is reported as “G2/M phase”. In addition, in the data set with MCF-7 cells [1] (MCF-7, 1.52 µM (IC50), 24 h), the “cell population %G0/G1” value is listed as 24.92%, the “cell population %G2/M” value was found to be 45.86%, the “cell population %Pre G1” value is on record as 29.41% and the “cell population %S” value is given as 29.22%. Also, in the data set with MCF-7 cells [1] (setting [6]), the “augmentation of proportion of cells in the G2/M phase” value came out at 4.25 fold and the “augmentation of proportion of cells in the pre-G1 phase” value was found to be 16.24 fold. Also, in the data set on MCF-7 cells [1] (setting [7]), the “decline in the cell population at the G0/G1 phase” value is 54.73% and the “decline in the cell population at the S phase” value came to 14.5%. Further, in data set [2], the “down-regulation of total p38 MAPK” value is around 40% and the “interference with p38 MAPK phosphorylation (decrease of phosphorylated p38 MAPK)” value is on record as around 60%. Besides, in the data set on MCF-7 cells [3] (MCF-7, 1.52 µM (IC50)), the “apoptotic cells percentage, early apoptosis” value is 5.17%; the “apoptotic cells percentage, late apoptosis” value turned out to be 21.96%; the percentage necrosis is listed as 2.28%; the “percentage of total apoptosis” value came out at 29.41%. Moreover, in the data set with MCF-7 cells [3] (MCF-7, 1.52 µM), the “elevation in late apoptosis, fold more than control” value was determined as 57.78 fold; the “increase in early apoptosis, fold more than control” value was 9.0 fold; the “increase in total apoptosis, fold compared to the control” value came to 16.24 fold. Moreover, in data set [4], the “fold more active than 2a” value is recorded as 5.6 fold and the “fold more active than 2b” value was determined as 8.7 fold. Moreover, the concentration for half-maximal inhibition (IC50) in data set [4] (Homo sapiens, MCF7, 48 h, read-out: In vitro cytotoxicity IC50 MCF-7) was 1.52 ± 0.03 µM. Also, the Selectivity index in data set [4] (ratio of IC50 on normal cells (MCF-10a) to cancer cells (MCF-7)) was 15 and 15.24. For the same compound, the “ROS induction higher than control” value in the data set on MCF-7 cells [5] came out at 10%.
